Experimental data taken from ChEMBL document CHEMBL1201862, “PubChem BioAssay data set” (2004).
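Method: 48-hour compound exposure of cells in 96-well plates, five concentrations, linear interpolation of endpoints. Here, GI50 denotes the concentration required for 50% inhibition of growth.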 Activity calls are given as the source filed them. Rule as the data show it: active = GI50 up to about 1.1 µM and inactive = higher.

Legend:
Experiment in all cases: inhibition of tumour cell growth, NCI panel, 48 h
SK-MEL-28 = tested on: SK-MEL-28
HOP-92 = tested on: HOP-92
NCI/ADR-RES = tested on: NCI/ADR-RES
MOLT-4 = tested on: MOLT-4
Hs-578T = tested on: Hs-578T
OVCAR-3 = tested on: OVCAR-3
MCF7 = tested on: MCF7
EKVX = tested on: EKVX
OVCAR-5 = tested on: OVCAR-5
A549 = tested on: A549
SK-MEL-5 = tested on: SK-MEL-5
HT-29 = tested on: HT-29
HL-60 = tested on: HL-60
OVCAR-4 = tested on: OVCAR-4
HCC 2998 = tested on: HCC 2998
COLO 205 = tested on: COLO 205
ACHN = tested on: ACHN
KM12 = tested on: KM12
A498 = tested on: A498
SN12C = tested on: SN12C

Compound	GI50 (SK-MEL-28)	GI50 (HOP-92)	GI50 (NCI/ADR-RES)	GI50 (MOLT-4)	GI50 (Hs-578T)	GI50 (OVCAR-3)	GI50 (MCF7)	GI50 (EKVX)	GI50 (OVCAR-5)	GI50 (A549)	GI50 (SK-MEL-5)	GI50 (HT-29)	GI50 (HL-60)	GI50 (OVCAR-4)	GI50 (HCC 2998)	GI50 (COLO 205)	GI50 (ACHN)	GI50 (KM12)	GI50 (A498)	GI50 (SN12C)
CN(/N=C/c1ccccn1)C1=NCCN1	> 100 µM (inactive)	> 100 µM (inactive)	> 100 µM (inactive)	> 100 µM (inactive)	> 100 µM (inactive)	> 100 µM (inactive)	> 100 µM (inactive)	> 100 µM (inactive)	> 100 µM (inactive)	> 100 µM (inactive)	> 100 µM (inactive)	> 100 µM (inactive)	> 100 µM (inactive)	> 100 µM (inactive)	> 100 µM (inactive)	> 100 µM (inactive)	> 100 µM (inactive)	> 100 µM (inactive)	> 100 µM (inactive)	–
CN(C)CCn1c(=O)c2ccc(NCCN3CCNCC3)c3c(=O)c4ccccc4n(c1=O)c23	6.61 µM (inactive)	0.776 µM (active)	9.93 µM (inactive)	0.0294 µM (active)	3.04 µM (inactive)	5.05 µM (inactive)	0.743 µM (active)	1.87 µM (inactive)	8.47 µM (inactive)	0.962 µM (active)	3.47 µM (inactive)	0.82 µM (active)	2.59 µM (inactive)	5.69 µM (inactive)	1.97 µM (inactive)	1.35 µM (inactive)	1.27 µM (inactive)	1.63 µM (inactive)	4.15 µM (inactive)	1.47 µM (inactive)
CC(C)(C)c1ccc(/C=N/NC(=O)CSCC(=O)N/N=C/c2ccc(C(C)(C)C)cc2)cc1	6.17 µM (inactive)	2.49 µM (inactive)	4.26 µM (inactive)	2.12 µM (inactive)	3.17 µM (inactive)	–	2.28 µM (inactive)	2.65 µM (inactive)	3.03 µM (inactive)	2.86 µM (inactive)	1.87 µM (inactive)	1.83 µM (inactive)	1.72 µM (inactive)	3.88 µM (inactive)	2.73 µM (inactive)	1.17 µM (inactive)	2.93 µM (inactive)	2.53 µM (inactive)	1.46 µM (inactive)	1.77 µM (inactive)
CCOC(=O)[C@H]1O[C@@H]1C(=O)NC(CC(C)C)C(=O)NCCC(C)C (stereo not given in full)	> 100 µM (inactive)	> 100 µM (inactive)	> 100 µM (inactive)	> 100 µM (inactive)	> 100 µM (inactive)	> 100 µM (inactive)	> 100 µM (inactive)	> 100 µM (inactive)	> 100 µM (inactive)	> 100 µM (inactive)	> 100 µM (inactive)	> 100 µM (inactive)	–	> 100 µM (inactive)	> 100 µM (inactive)	> 100 µM (inactive)	–	> 100 µM (inactive)	> 100 µM (inactive)	> 100 µM (inactive)
CCOC(=O)c1c(SC(=O)C(C)(C)Oc2ccc(Cl)cc2)n(-c2ccccc2)c(=S)n(-c2ccccc2)c1=O	62.5 µM (inactive)	35.6 µM (inactive)	58.6 µM (inactive)	24.9 µM (inactive)	26.9 µM (inactive)	32.1 µM (inactive)	21.5 µM (inactive)	52.8 µM (inactive)	67 µM (inactive)	26.9 µM (inactive)	–	27.4 µM (inactive)	19.5 µM (inactive)	34.4 µM (inactive)	> 100 µM (inactive)	20.7 µM (inactive)	23.3 µM (inactive)	24.8 µM (inactive)	52.7 µM (inactive)	25.2 µM (inactive)
Cc1ccc(NC(=O)CC(=O)N2N=C(N(c3ccccc3)c3ccccc3)CC2c2ccccc2)cc1 (stereo not given)	> 100 µM (inactive)	> 100 µM (inactive)	> 100 µM (inactive)	> 100 µM (inactive)	31.6 µM (inactive)	> 100 µM (inactive)	> 100 µM (inactive)	> 100 µM (inactive)	> 100 µM (inactive)	> 100 µM (inactive)	> 100 µM (inactive)	> 100 µM (inactive)	> 100 µM (inactive)	> 100 µM (inactive)	> 100 µM (inactive)	> 100 µM (inactive)	> 100 µM (inactive)	> 100 µM (inactive)	> 100 µM (inactive)	–
Cc1cccc(/C=C2/C(=O)Nc3ccccc32)n1	24.2 µM (inactive)	7.82 µM (inactive)	14.6 µM (inactive)	7.5 µM (inactive)	24.2 µM (inactive)	14.2 µM (inactive)	5.79 µM (inactive)	16.8 µM (inactive)	11.9 µM (inactive)	–	12.9 µM (inactive)	24.1 µM (inactive)	9.95 µM (inactive)	23.4 µM (inactive)	10.6 µM (inactive)	19.9 µM (inactive)	10.3 µM (inactive)	13.2 µM (inactive)	21.3 µM (inactive)	–
O=C(O)C1C2C=CC(O2)C1C(=O)NCc1cccnc1 (stereo not given)	> 100 µM (inactive)	> 100 µM (inactive)	> 100 µM (inactive)	> 100 µM (inactive)	51.8 µM (inactive)	> 100 µM (inactive)	> 100 µM (inactive)	> 100 µM (inactive)	> 100 µM (inactive)	> 100 µM (inactive)	> 100 µM (inactive)	> 100 µM (inactive)	> 100 µM (inactive)	> 100 µM (inactive)	–	> 100 µM (inactive)	> 100 µM (inactive)	> 100 µM (inactive)	> 100 µM (inactive)	> 100 µM (inactive)
CCOC(=O)c1nc2ccc(C(F)(F)F)cc2[nH]c1=O	> 100 µM (inactive)	> 100 µM (inactive)	> 100 µM (inactive)	> 100 µM (inactive)	82 µM (inactive)	> 100 µM (inactive)	> 100 µM (inactive)	–	> 100 µM (inactive)	> 100 µM (inactive)	> 100 µM (inactive)	> 100 µM (inactive)	> 100 µM (inactive)	> 100 µM (inactive)	> 100 µM (inactive)	> 100 µM (inactive)	> 100 µM (inactive)	> 100 µM (inactive)	> 100 µM (inactive)	> 100 µM (inactive)
CCCCOc1ccc(S(=O)(=O)N/C(=N\O)Nc2ccc(Cl)cc2)cc1	18.2 µM (inactive)	4.79 µM (inactive)	15.8 µM (inactive)	10.8 µM (inactive)	23.2 µM (inactive)	14.9 µM (inactive)	13.3 µM (inactive)	15.8 µM (inactive)	18.6 µM (inactive)	16.1 µM (inactive)	14.3 µM (inactive)	17.2 µM (inactive)	–	10.8 µM (inactive)	14.3 µM (inactive)	18.3 µM (inactive)	14.9 µM (inactive)	16.6 µM (inactive)	13.4 µM (inactive)	17.3 µM (inactive)
CN(C)CCNc1nc2c(c(=O)n(C)c(=O)n2C)n1C	> 100 µM (inactive)	> 100 µM (inactive)	> 100 µM (inactive)	> 100 µM (inactive)	> 100 µM (inactive)	> 100 µM (inactive)	> 100 µM (inactive)	> 100 µM (inactive)	> 100 µM (inactive)	> 100 µM (inactive)	> 100 µM (inactive)	> 100 µM (inactive)	> 100 µM (inactive)	> 100 µM (inactive)	–	> 100 µM (inactive)	> 100 µM (inactive)	> 100 µM (inactive)	> 100 µM (inactive)	> 100 µM (inactive)
N#Cc1c(-c2ccc([N+](=O)[O-])cc2)c(C#N)c(=O)n(NS(=O)(=O)c2ccccc2)c1-c1ccccc1	> 100 µM (inactive)	> 100 µM (inactive)	> 100 µM (inactive)	> 100 µM (inactive)	> 100 µM (inactive)	–	> 100 µM (inactive)	> 100 µM (inactive)	> 100 µM (inactive)	> 100 µM (inactive)	> 100 µM (inactive)	> 100 µM (inactive)	> 100 µM (inactive)	> 100 µM (inactive)	> 100 µM (inactive)	> 100 µM (inactive)	> 100 µM (inactive)	> 100 µM (inactive)	> 100 µM (inactive)	> 100 µM (inactive)
Cc1cccc(C)c1NC(=O)C(Cc1c[nH]c2ccccc12)NC(=O)OCc1ccccc1 (stereo not given)	18.9 µM (inactive)	22.4 µM (inactive)	14.4 µM (inactive)	15.4 µM (inactive)	33.1 µM (inactive)	22.9 µM (inactive)	23.2 µM (inactive)	15.2 µM (inactive)	18.8 µM (inactive)	14.6 µM (inactive)	13.5 µM (inactive)	18.7 µM (inactive)	12.4 µM (inactive)	8.04 µM (inactive)	–	13.2 µM (inactive)	19.8 µM (inactive)	19.6 µM (inactive)	21.2 µM (inactive)	21.5 µM (inactive)
COc1ccc(NC(=O)CC(=O)N2N=C(C)C(/N=N\c3ccc(S(=O)(=O)c4ccc(/N=N/C5C(=O)N(C(=O)CC(=O)Nc6ccc(OC)cc6)N=C5C)cc4)cc3)C2=O)cc1 (stereo not given)	> 100 µM (inactive)	63.5 µM (inactive)	> 100 µM (inactive)	> 100 µM (inactive)	25 µM (inactive)	> 100 µM (inactive)	> 100 µM (inactive)	> 100 µM (inactive)	–	> 100 µM (inactive)	63 µM (inactive)	> 100 µM (inactive)	> 100 µM (inactive)	> 100 µM (inactive)	> 100 µM (inactive)	> 100 µM (inactive)	> 100 µM (inactive)	> 100 µM (inactive)	> 100 µM (inactive)	> 100 µM (inactive)
